{
  "source": "ChEMBL document CHEMBL1201862",
  "about": "“PubChem BioAssay data set” (2004)",
  "key": {"Coagulation factor XII [1]": {"biological_target": "T1, Coagulation factor XII (Homo sapiens, UniProt P00748)", "T1 sequence (P00748 whole entry)": "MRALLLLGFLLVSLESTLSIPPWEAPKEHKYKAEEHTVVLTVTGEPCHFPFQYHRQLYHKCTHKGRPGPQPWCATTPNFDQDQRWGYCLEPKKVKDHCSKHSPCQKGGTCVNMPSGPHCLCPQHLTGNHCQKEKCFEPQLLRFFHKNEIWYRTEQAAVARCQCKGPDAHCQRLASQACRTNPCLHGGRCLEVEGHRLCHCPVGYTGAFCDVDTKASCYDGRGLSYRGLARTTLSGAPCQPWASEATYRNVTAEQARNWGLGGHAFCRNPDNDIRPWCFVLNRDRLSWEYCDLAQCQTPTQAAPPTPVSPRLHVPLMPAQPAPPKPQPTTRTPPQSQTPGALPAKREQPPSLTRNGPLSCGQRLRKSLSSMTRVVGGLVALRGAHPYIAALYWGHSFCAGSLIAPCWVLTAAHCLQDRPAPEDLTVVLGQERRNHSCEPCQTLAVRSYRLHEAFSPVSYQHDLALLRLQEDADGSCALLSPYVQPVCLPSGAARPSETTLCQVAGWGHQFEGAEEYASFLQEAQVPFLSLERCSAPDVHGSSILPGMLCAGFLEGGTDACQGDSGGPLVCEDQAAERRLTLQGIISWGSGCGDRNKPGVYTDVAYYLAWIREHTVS", "type": "functional"}, "Coagulation factor XII [2]": {"biological_target": "T1, Coagulation factor XII", "test": "FXIIa inhibitor potency, concentration-response, biochemical (AID 716)", "type": "functional"}, "[3]": {"biological_target": "T2, Sphingosine 1-phosphate receptor 4 (Homo sapiens, UniProt O95977)", "T2 sequence (O95977 whole entry)": "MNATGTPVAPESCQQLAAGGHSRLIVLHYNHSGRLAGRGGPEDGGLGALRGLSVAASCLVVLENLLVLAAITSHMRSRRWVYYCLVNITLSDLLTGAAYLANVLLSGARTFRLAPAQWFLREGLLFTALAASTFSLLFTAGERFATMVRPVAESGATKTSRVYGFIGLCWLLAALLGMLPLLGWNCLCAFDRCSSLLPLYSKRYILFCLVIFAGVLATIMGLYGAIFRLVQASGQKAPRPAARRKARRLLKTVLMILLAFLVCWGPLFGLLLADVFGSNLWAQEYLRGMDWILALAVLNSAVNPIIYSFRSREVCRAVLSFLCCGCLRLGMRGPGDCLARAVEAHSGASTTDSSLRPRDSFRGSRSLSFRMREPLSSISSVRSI", "test": "Late-stage fluorescence dose response cell-based assay to identify agonists of the Sphingosine 1-Phosphate Receptor 4 (S1P4): purchased compounds EC50. [Related pubchem assays (depositor defined):AID1509, AID1523, AID1563, AID1686, AID1701, AID1801]", "type": "functional"}, "[4]": {"test": "THP-1 cell cytotoxicity, dose response, cytotoxicity control for non-replicating M. tuberculosis project (AID 489025)", "type": "functional"}, "[5]": {"test": "HepG2 cell cytotoxicity, dose response, cytotoxicity control for non-replicating M. tuberculosis project (AID 489018)", "type": "functional", "conditions": "Mycobacterium tuberculosis"}, "[6]": {"biological_target": "T3, C-C chemokine receptor type 6 (Homo sapiens, UniProt P51684)", "T3 sequence (P51684 whole entry)": "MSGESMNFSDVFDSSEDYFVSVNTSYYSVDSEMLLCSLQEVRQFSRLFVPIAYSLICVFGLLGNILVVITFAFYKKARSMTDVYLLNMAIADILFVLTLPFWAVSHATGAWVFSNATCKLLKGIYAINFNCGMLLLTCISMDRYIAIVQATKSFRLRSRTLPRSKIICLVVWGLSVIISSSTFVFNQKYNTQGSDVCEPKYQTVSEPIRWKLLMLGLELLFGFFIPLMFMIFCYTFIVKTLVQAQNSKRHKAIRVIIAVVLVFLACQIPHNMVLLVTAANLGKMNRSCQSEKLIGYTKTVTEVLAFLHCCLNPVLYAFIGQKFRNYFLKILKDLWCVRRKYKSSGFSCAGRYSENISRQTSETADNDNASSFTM", "test": "CCR6 receptor antagonists, dose response, cell-based, luminescent beta-arrestin readout (AID 504728)", "type": "functional"}, "Beta-galactosidase": {"biological_target": "Beta-galactosidase (Escherichia coli, UniProt Q8VNN2)", "sequence (Q8VNN2 whole entry)": "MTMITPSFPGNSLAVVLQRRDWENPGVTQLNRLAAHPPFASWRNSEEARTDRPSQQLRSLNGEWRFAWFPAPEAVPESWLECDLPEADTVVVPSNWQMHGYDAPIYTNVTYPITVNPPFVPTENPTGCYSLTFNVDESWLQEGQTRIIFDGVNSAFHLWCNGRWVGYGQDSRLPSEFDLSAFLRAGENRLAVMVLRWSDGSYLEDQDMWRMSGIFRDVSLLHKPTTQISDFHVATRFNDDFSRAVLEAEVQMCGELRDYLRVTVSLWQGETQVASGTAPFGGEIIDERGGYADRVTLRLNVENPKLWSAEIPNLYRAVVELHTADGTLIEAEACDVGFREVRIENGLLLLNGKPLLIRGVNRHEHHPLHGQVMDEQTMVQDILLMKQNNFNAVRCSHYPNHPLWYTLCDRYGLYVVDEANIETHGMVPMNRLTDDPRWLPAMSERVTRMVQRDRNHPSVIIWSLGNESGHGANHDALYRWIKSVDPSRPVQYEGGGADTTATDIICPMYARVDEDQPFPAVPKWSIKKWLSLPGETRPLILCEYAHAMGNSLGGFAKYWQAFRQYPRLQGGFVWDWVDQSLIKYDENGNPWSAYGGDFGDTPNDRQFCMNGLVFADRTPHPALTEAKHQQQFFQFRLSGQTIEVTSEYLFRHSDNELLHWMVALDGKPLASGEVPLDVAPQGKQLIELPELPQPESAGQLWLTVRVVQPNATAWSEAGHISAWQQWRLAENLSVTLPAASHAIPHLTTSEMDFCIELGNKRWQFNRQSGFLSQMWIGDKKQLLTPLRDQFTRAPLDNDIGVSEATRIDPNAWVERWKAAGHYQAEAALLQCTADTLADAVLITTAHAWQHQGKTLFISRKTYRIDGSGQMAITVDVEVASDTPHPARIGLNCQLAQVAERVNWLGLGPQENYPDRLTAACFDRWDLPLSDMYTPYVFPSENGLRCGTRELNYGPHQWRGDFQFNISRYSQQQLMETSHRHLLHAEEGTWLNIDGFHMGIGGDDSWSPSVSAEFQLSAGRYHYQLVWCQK", "test": "beta-galactosidase enzyme inhibitors and activators, dose response, artefact control for CCR6 antagonist project, biochemical, E. coli enzyme, set 3 (AID 504712)", "type": "functional"}, "[7]": {"test": "Vero E6 cell cytotoxicity, dose response, cytotoxicity control for non-replicating M. tuberculosis project, secondary assay (AID 492998)", "type": "functional, VeroE6", "conditions": "Vero C1008"}, "cells": {"test": "cells", "type": "functional"}, "INS1": {"tested_on": "INS1", "test": "beta cell apoptosis inhibitors, cytokine rescue, dose response, luminescence, retest (AID 449756);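 also: cell death triggered by IL-1 beta plus TNF-alpha plus IFN-gamma mixture; protective hits raise ATP signal compared with cytokine alone wells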", "type": "functional, cell-based", "conditions": "Rattus norvegicus"}, "[8]": {"biological_target": "T4, Short transient receptor potential channel 4 (Mus musculus, UniProt Q9QUQ5)", "T4 sequence (Q9QUQ5 whole entry)": "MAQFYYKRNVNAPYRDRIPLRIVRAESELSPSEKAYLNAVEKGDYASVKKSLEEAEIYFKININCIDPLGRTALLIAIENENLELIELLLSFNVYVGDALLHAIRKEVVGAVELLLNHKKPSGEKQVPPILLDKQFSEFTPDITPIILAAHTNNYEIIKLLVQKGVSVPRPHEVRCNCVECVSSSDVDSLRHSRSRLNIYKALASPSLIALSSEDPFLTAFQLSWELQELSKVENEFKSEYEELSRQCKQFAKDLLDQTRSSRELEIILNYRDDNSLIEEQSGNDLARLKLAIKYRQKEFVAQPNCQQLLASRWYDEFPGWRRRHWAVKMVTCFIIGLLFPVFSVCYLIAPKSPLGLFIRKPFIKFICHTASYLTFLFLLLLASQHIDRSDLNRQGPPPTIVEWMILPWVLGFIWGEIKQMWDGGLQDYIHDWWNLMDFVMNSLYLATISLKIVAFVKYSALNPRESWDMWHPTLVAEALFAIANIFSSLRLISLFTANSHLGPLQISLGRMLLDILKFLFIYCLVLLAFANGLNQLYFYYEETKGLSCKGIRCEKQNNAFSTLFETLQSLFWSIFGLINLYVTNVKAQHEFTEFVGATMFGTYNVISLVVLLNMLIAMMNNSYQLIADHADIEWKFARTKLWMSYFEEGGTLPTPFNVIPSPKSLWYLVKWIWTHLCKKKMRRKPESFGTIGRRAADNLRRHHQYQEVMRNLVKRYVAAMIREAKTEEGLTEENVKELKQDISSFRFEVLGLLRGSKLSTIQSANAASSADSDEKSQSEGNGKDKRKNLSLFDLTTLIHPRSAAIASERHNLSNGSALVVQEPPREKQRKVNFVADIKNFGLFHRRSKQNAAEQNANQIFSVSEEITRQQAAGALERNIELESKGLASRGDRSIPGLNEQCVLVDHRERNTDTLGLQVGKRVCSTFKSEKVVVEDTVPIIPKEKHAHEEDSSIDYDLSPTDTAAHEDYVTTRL", "test": "TRPC4 positive allosteric modulators, dose response, cell-based, HEK293 TRPC4/mu-opioid, Fluo-4 calcium, EC20 DAMGO (AID 434941)", "type": "functional"}, "Cytochrome P450 2D6": {"biological_target": "Cytochrome P450 2D6 (Homo sapiens, UniProt P10635)", "sequence (P10635 whole entry)": "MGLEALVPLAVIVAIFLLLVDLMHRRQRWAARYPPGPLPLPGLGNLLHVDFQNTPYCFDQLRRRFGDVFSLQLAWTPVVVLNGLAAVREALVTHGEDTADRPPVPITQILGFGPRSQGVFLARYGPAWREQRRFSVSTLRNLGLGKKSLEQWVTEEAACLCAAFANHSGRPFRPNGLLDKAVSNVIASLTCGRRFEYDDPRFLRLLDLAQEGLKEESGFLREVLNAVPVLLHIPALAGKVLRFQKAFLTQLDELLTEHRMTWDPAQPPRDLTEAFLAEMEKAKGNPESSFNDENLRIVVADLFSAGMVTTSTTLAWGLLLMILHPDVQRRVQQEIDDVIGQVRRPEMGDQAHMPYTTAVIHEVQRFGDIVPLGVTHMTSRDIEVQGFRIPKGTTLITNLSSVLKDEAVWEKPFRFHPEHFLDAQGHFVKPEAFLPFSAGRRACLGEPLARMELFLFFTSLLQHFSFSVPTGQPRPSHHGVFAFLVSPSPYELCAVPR"}, "Cytochrome P450 2C9": {"biological_target": "Cytochrome P450 2C9 (Homo sapiens, UniProt P11712)", "sequence (P11712 whole entry)": "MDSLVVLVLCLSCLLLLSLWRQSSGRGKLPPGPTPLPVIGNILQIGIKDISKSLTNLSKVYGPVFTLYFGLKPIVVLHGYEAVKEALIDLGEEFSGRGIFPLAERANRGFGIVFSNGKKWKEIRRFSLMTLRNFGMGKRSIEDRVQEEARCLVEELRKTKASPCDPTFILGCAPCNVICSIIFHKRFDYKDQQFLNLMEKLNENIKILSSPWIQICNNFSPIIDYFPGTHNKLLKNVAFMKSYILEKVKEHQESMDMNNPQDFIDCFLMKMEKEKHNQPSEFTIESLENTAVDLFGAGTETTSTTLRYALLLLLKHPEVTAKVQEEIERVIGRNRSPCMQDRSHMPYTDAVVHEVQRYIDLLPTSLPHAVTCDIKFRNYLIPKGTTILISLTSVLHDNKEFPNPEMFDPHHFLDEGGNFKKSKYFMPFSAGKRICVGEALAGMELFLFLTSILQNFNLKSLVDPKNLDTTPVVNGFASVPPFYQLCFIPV"}},
  "note": "The source made the active and inactive calls.",
  "data": [
    {"compound": "CC(=O)N1CCc2c(sc(NC(=O)C3CC3)c2-c2nc3ccccc3s2)C1", "values": [
      {"measurement": "IC50", "setting": "Coagulation factor XII [1]", "result": "25.7 µM (active)"}
    ]},
    {"compound": "Cc1cc(N2CCCC2=O)cc(C)c1S(=O)(=O)NCCOc1ccccc1", "values": [
      {"measurement": "IC50", "setting": "Coagulation factor XII [2]", "result": "> 50 µM (inactive)"}
    ]},
    {"compound": "Cc1nn(CC(C)C)c(Cl)c1C(=O)OC(C)C(=O)Nc1ccccc1", "note": "(centres undefined)", "values": [
      {"measurement": "EC50", "setting": "[3]", "result": "> 50 µM (inactive)"}
    ]},
    {"compound": "Cc1cc(N/N=C/c2ccc(F)cc2)nc(-n2nc(C)cc2C)n1", "values": [
      {"measurement": "CC50", "setting": "[4]", "result": "10.8 µM (active)"},
      {"measurement": "CC50", "setting": "[5]", "result": "> 20 µM (active)"},
      {"measurement": "IC50", "setting": "[6]", "result": "> 66.6 µM (inactive)"},
      {"measurement": "IC50", "setting": "Beta-galactosidase", "result": "> 66.6 µM (inactive)"},
      {"measurement": "CC50", "setting": "[7]", "result": "15.6 µM (active)"},
      {"measurement": "IC50", "setting": "cells", "result": "< 0.1 µM (active)"},
      {"measurement": "AC50", "setting": "INS1", "result": "2.81 µM (active)"}
    ]},
    {"compound": "Cc1ccc(/C=N/NC(=O)NC2CCCCC2)o1", "values": [
      {"measurement": "EC50", "setting": "[8]", "result": "3.35 µM (active)"}
    ]},
    {"compound": "COc1ccc2[nH]cc(CCN(C)C)c2c1", "note": "[MEBUFOTENIN]", "values": [
      {"measurement": "EC50", "setting": "[8]", "result": "0.67 µM (active)"},
      {"measurement": "AC50", "setting": "Cytochrome P450 2D6", "result": "20 µM (inconclusive)"},
      {"measurement": "AC50", "setting": "Cytochrome P450 2C9", "result": "inconclusive"}
    ]}
  ]
}
